Data set [1] can be described thus: Selectivity index, ratio of IC50 for dark toxicity against human MDA-MB-231 cells to IC50 for phototoxicity against human MDA-MB-231 cells irradiated with 2 J/cm^2 of light dose. It is filed as cell-based. To be noted: read-out: Ratio IC50.
Data set [2] has as its system MDA-MB-231. Briefly: Dark toxicity against human MDA-MB-231 cells assessed as cell viability after 72 hrs by MTT assay. Format: functional, cell-based. The note with it: MDA-MB-231, 72 h. For orientation: Tetrazolium dyes change colour on reduction, which living cells bring about.
For data set [3], the system named is MDA-MB-231. The data set can be described thus: Phototoxicity against human MDA-MB-231 cells assessed as cell viability incubated for 1 hr followed by irradiated with 2 J/cm^2 of light dose measured after 72 hrs by MTT assay. Format: functional, cell-based. The note with it: MDA-MB-231, light or radiation study.
Data set [4] can be described thus: Induction of superoxide anion generation irradiated with 560 nm LED light. It is filed as functional.
The subject of another data set is HCC1954. Briefly: Phototoxicity against human HCC1954 cells assessed as cell viability incubated for 1 hr followed by irradiated with 2 J/cm^2 of light dose measured after 24 hrs by resazurin assay. Format: functional, cell-based. To be noted: HCC1954, light or radiation study.
Data set [5] relates to MDA-MB-231. The data set can be described thus: Induction of reactive oxygen species production in human MDA-MB-231 cells assessed as decrease in thiol formation incubated for 1 hr followed by irradiated with 2 J/cm^2 of light dose after 24 hrs by DTNB assay. Format: functional, cell-based. The note with it: time 25.0 hrs, TDE = time-dependent effect.
Data set [6] deals with DNA. The data set can be described thus: Induction of DNA damage in Escherichia coli pBR322 DNA assessed as supercoiled DNA relative to control. Format: nucleic-acid assay.
For data set [7], the system named is DNA. Briefly: Induction of DNA damage in Escherichia coli pBR322 DNA assessed as open circular DNA irradiated with 7.5 J/cm^2 UV light dose relative to control. Format: nucleic-acid assay.
Data set [8] relates to DNA. Briefly: Induction of DNA damage in Escherichia coli pBR322 DNA assessed as supercoiled DNA irradiated with 15 J/cm^2 UV light dose relative to control. Format: nucleic-acid assay.
A short description of data set [9]: Induction of singlet oxygen in phosphate buffer assessed as RNO bleaching at pH 7.3 irradiated with 440 nm LED light by spectrophotometry. It is filed as functional.
Data set [10] deals with DNA. The data set can be described thus: Induction of DNA damage in Escherichia coli pBR322 DNA assessed as open circular DNA relative to control. Format: nucleic-acid assay.
In data set [11] the test system is DNA. Briefly: Induction of DNA damage in Escherichia coli pBR322 DNA assessed as supercoiled DNA irradiated with 7.5 J/cm^2 UV light dose relative to control. It is filed as nucleic-acid assay.
The test system of data set [12] is DNA. The data set can be described thus: Induction of DNA damage in Escherichia coli pBR322 DNA assessed as open circular DNA irradiated with 15 J/cm^2 UV light dose relative to control. Format: nucleic-acid assay.
Data set [13] deals with MDA-MB-231. Briefly: Induction of apoptosis in human MDA-MB-231 cells assessed as chromatin condensation and fragmentation at IC50 measured after 24 hrs by Hoechst staining based microscopic analysis. Format: functional.
Data set [14] has as its system T-24. Briefly: Induction of apoptosis in human T24 cells assessed as necrotic cells at IC50 followed by irradiated with 2 J/cm^2 of light dose after 24 hrs annexin-V-PI staining based flow cytometry. It is filed as functional, cell-based. For orientation: A flow cytometer gives signals particle by particle.
Data set [15] deals with T-24. Briefly: Phototoxicity against human T24 cells assessed as cell viability incubated for 1 hr followed by irradiated with 2 J/cm^2 of light dose measured after 24 hrs by resazurin assay. It is filed as functional, cell-based. To be noted: T-24, light or radiation study. On the technique in general: Alamar Blue is a resazurin reagent that responds to reducing activity.

In data set [16] the test system is MDA-MB-231. The data set can be described thus: Induction of apoptosis in human MDA-MB-231 cells assessed as pyknotic nuclei at IC50 measured after 24 hrs by Hoechst staining based microscopic analysis. Format: functional.
The test system of data set [17] is T-24. Briefly: Induction of apoptosis in human T24 cells assessed as apoptotic cells at IC50 followed by irradiated with 2 J/cm^2 of light dose after 24 hrs annexin-V-PI staining based flow cytometry. It is filed as functional, cell-based.
Data set [18] relates to MDA-MB-231. The data set can be described thus: Induction of reactive oxygen species production in human MDA-MB-231 cells assessed as increase in hydrogen peroxide production incubated for 1 hr followed by irradiated with 2 J/cm^2 of light dose by CM-H2DCFDA dye based fluorescence assay. It is filed as functional, cell-based.

Calls of active or inactive are those of the source. The calls are words filed in the database; no cut-off is given here.

With `CC(C)OC(=O)c1ccc2n1CCCc1cnc(N)nc1-2`, the selectivity ratio in [1] is 1. Also, the IC50 in the data set with MDA-MB-231 [2] was 5.87 µM; with MDA-MB-231 [3], 5.76 µM.

For `c1ccc(Nc2ncc3c(n2)-c2cccn2CC3)cc1`, the selectivity ratio in data set [1] was more than 9. In addition, the 50% inhibitory concentration (IC50) is more than 50 µM in the data set on MDA-MB-231 [2] and 5.55 µM in the data set on MDA-MB-231 [3].

As to `CCOC(=O)c1ccc2n1CCCc1cnc(NC3CCCCC3)nc1-2`, the outcome (in data set [4]; in data set [9]; in the data set on T-24 [14]; in the data set on T-24 [17]; in the data set with MDA-MB-231 [18]) was Active. The 50% inhibitory concentration (IC50) was determined as 1.5 µM with HCC1954, 5.44 µM in the data set on MDA-MB-231 [2], 0.45 µM in the data set with MDA-MB-231 [3] and 0.9 µM in the data set on T-24 [15]. Moreover, the selectivity ratio in data set [1] amounted to 12.1. Besides, the Activity result in the data set with MDA-MB-231 [5] was “Tde”; in the data set on DNA [6], 86.2%; in the data set with DNA [7], 23.9%; with DNA [8], 74.7%; in the data set on DNA [10] it was 13.8%; with DNA [11] it was 76.1%. The Activity turned out to be 25.3% in the data set with DNA [12], 81.3% in the data set on MDA-MB-231 [13] and 61.5% in the data set on MDA-MB-231 [16].

Consider `CCOC(=O)c1ccc2n1CCCc1cnc(Nc3ccccc3)nc1-2`, for which the selectivity ratio in data set [1] was more than 9.2. Moreover, the IC50 in the data set with MDA-MB-231 [2] was more than 50 µM; in the data set on MDA-MB-231 [3] it was 5.45 µM.

On to `CC(C)OC(=O)c1ccc2n1CCc1cnc(NC3CCCCC3)nc1-2`, for which, in data set [4], the outcome was Active. For the same compound, in data set [1], the selectivity ratio was more than 4. In addition, the Activity in the data set with DNA [6] stood at 81.3%; in the data set on DNA [7], 40.3%; in the data set on DNA [8], 36.6%; with DNA [10] it was 18.7%; in the data set with DNA [11] it was 59.7%; in the data set on DNA [12] it was 63.4%. For the same compound, the figures for the IC50 in the data set with MDA-MB-231 [2] and in the data set on MDA-MB-231 [3] were more than 50 µM and 12.5 µM, respectively.

Take `CC(=O)Nc1ncc2c(n1)-c1ccc(C(=O)OC(C)C)n1CC2`: the selectivity ratio in [1] was more than 3.8. For the same compound, the IC50 is more than 50 µM with MDA-MB-231 [2] and 13.1 µM with MDA-MB-231 [3].

On to `CC(C)OC(=O)c1ccc2n1CCc1cnc(NC3CCCC3)nc1-2`, for which the selectivity ratio in data set [1] is more than 3.7. In addition, the IC50 in the data set on MDA-MB-231 [2] is more than 50 µM; in the data set on MDA-MB-231 [3], 13.4 µM.

On to `CC(C)OC(=O)c1ccc2n1CCc1cnc(Nc3ccccc3)nc1-2`, for which the IC50 with MDA-MB-231 [2] and in the data set with MDA-MB-231 [3] was more than 50 µM each time.

For the compound `CCOC(=O)c1ccc2n1CCCc1cnc(NC3CCCC3)nc1-2`, the selectivity ratio in data set [1] was found to be 1.5. In addition, the figures for the IC50 in the data set with MDA-MB-231 [2] and in the data set with MDA-MB-231 [3] were 1.41 µM and 0.9 µM, respectively.

On to `CCOC(=O)c1ccc2n1CCc1cnc(NC(C)=O)nc1-2`, for which the selectivity ratio in data set [1] was more than 7. The IC50 was more than 6.25 µM with MDA-MB-231 [2] and 0.9 µM in the data set with MDA-MB-231 [3].

As to `Nc1ncc2c(n1)-c1cccn1CC2`, the selectivity ratio in data set [1] is more than 7.3. In addition, the IC50 in the data set on MDA-MB-231 [2] was more than 50 µM; in the data set with MDA-MB-231 [3], 6.81 µM.

With `c1cc2n(c1)CCc1cnc(NC3CCCC3)nc1-2`, the selectivity ratio in data set [1] turned out to be 1.1. Besides, the half-maximal inhibitory concentration (IC50) in the data set on MDA-MB-231 [2] was found to be 0.91 µM; in the data set on MDA-MB-231 [3], 0.86 µM.

Regarding `CCOC(=O)c1ccc2n1CCc1cnc(NC3CCCC3)nc1-2`, the IC50 with MDA-MB-231 [2] and in the data set with MDA-MB-231 [3] was more than 50 µM throughout.

For the compound `CCOC(=O)c1ccc2n1CCc1cnc(NC3CCCCC3)nc1-2`, the result (in [4]; in data set [9]; in the data set on T-24 [14]; with T-24 [17]; in the data set with MDA-MB-231 [18]) was Active. The IC50 in the data set on HCC1954 worked out at 0.9 µM; in the data set on MDA-MB-231 [2] it was 1.74 µM; with MDA-MB-231 [3], 0.82 µM; in the data set with T-24 [15], 0.96 µM. Further, in data set [1], the selectivity ratio worked out at 2.1. Moreover, the Activity result is “Tde” with MDA-MB-231 [5]; 83.4% with DNA [6]; 21.6% with DNA [7]; 83.5% in the data set with DNA [8]; 16.6% in the data set on DNA [10]; 78.4% in the data set on DNA [11]. Also, the Activity with DNA [12] amounted to 16.5%; with MDA-MB-231 [13] it was 83.4%; in the data set on MDA-MB-231 [16], 86.2%.

Take `c1cc2n(c1)CCc1cnc(NC3CCCCC3)nc1-2`: the selectivity ratio in data set [1] was more than 16.7. The IC50 is more than 50 µM in the data set with MDA-MB-231 [2] and 3 µM in the data set on MDA-MB-231 [3].

Regarding `CC(=O)Nc1ncc2c(n1)-c1ccc(C(=O)OC(C)C)n1CCC2`, in data set [1], the selectivity ratio was more than 2.9. Besides, the figures for the IC50 with MDA-MB-231 [2] and in the data set with MDA-MB-231 [3] were more than 50 µM and 17.2 µM, respectively.

`CC(C)OC(=O)c1ccc2n1CCc1cnc(N)nc1-2`: in [1], the selectivity ratio was 0.8. The IC50 in the data set on MDA-MB-231 [2] came to 11.9 µM; with MDA-MB-231 [3], 14.5 µM.

Regarding `CC(C)OC(=O)c1ccc2n1CCCc1cnc(NC3CCCC3)nc1-2`, in data set [1], the selectivity ratio is more than 8.7. Moreover, the IC50 in the data set with MDA-MB-231 [2] was more than 50 µM; in the data set with MDA-MB-231 [3], 5.76 µM.

As to `CC(=O)Nc1ncc2c(n1)-c1cccn1CC2`, in data set [1], the selectivity ratio is more than 3.4. Also, the values for the half-inhibitory concentration (IC50) in the data set with MDA-MB-231 [2] and with MDA-MB-231 [3] were more than 50 µM and 14.8 µM, respectively.

On to `CCOC(=O)c1ccc2n1CCCc1cnc(N)nc1-2`, for which the IC50 with MDA-MB-231 [2] and in the data set on MDA-MB-231 [3] was more than 50 µM in each case.

With `CCOC(=O)c1ccc2n1CCCc1cnc(NC(C)=O)nc1-2`, the selectivity ratio in data set [1] came to 19.1. Besides, the figures for the IC50 in the data set with MDA-MB-231 [2] and with MDA-MB-231 [3] were 27.9 µM and 1.46 µM, respectively.

Turning to `CC(C)OC(=O)c1ccc2n1CCCc1cnc(NC3CCCCC3)nc1-2`, the outcome in data set [4] was Active. In addition, in data set [1], the selectivity ratio was more than 13.3. In addition, the Activity with DNA [6] came out at 61.5%; in the data set with DNA [7], 49.5%; in the data set with DNA [8], 50.1%; in the data set with DNA [10], 38.5%; with DNA [11] it was 50.5%; with DNA [12], 49.9%. In addition, the IC50 was more than 50 µM in the data set with MDA-MB-231 [2] and 3.75 µM in the data set on MDA-MB-231 [3].

Take `CC(C)OC(=O)c1ccc2n1CCCc1cnc(Nc3ccccc3)nc1-2`: the selectivity ratio in data set [1] is more than 3.5. The figures for the IC50 in the data set with MDA-MB-231 [2] and in the data set with MDA-MB-231 [3] were more than 50 µM and 14.3 µM, respectively.

For orientation: IC50 means the concentration that inhibits the measured activity by half.

The values are drawn from ChEMBL document CHEMBL5137014, “Insight on pyrimido[5,4-g]indolizine and pyrimido[4,5-c]pyrrolo[1,2-a]azepine systems as promising photosensitizers on malignant cells” (Eur J Med Chem, 2022).
